Experimental data taken from ChEMBL document CHEMBL4808229, “Privileged scaffolds in medicinal chemistry: Studies on pyrazolo[1,5-a]pyrimidines on sulfonamide containing Carbonic Anhydrase inhibitors” (Bioorg Med Chem Lett, 2021).

Target: Carbonic anhydrase 9 (Homo sapiens, UniProt Q16790)
Assay: Inhibition of recombinant human carbonic anhydrase 9 by stopped-flow CO2 hydration assay

Ki | Compound
843 nM | CCOC(=O)c1cnc2c(NC(=O)N/C=C/c3ccc(S(N)(=O)=O)cc3)cnn2c1C
975 nM | CCOC(=O)c1cnc2c(NC(=O)NCCc3ccc(S(N)(=O)=O)cc3)cnn2c1C
851 nM | Cc1c(C(=O)O)cnc2c(NC(=O)Nc3ccc(S(N)(=O)=O)cc3)cnn12
703 nM | Cc1c(C(=O)O)cnc2c(NC(=O)NCc3ccc(S(N)(=O)=O)cc3)cnn12
212 nM | Cc1c(C(=O)O)cnc2c(NC(=O)NCCc3ccc(S(N)(=O)=O)cc3)cnn12
9.7 nM | CCOC(=O)c1cnc2c(NC(=O)NCc3ccc(S(N)(=O)=O)cc3)cnn2c1C
919 nM | CCOC(=O)c1cnc2c(NC(=S)NCCc3ccc(S(N)(=O)=O)cc3)cnn2c1C
312 nM | CCOC(=O)c1cnc2c(NC(=S)Nc3cccc(S(N)(=O)=O)c3)cnn2c1C
6.5 nM | CCOC(=O)c1cnc2c(NC(=O)c3ccc(Cl)c(S(N)(=O)=O)c3)cnn2c1C
680 nM | CCOC(=O)c1cnc2c(NC(=S)Nc3ccc(S(N)(=O)=O)cc3)cnn2c1C
523 nM | Cc1c(C(=O)O)cnc2c(NC(=O)Nc3cccc(S(N)(=O)=O)c3)cnn12
142 nM | Cc1c(C(=O)O)cnc2c(NC(=O)c3ccc(S(N)(=O)=O)cc3)cnn12
142 nM | CCOC(=O)c1cnc2c(NC(=O)c3ccc(S(N)(=O)=O)cc3)cnn2c1C
23 nM | CCOC(=O)c1cnc2c(NC(=S)NCc3ccc(S(N)(=O)=O)cc3)cnn2c1C
